{
  "source": "PubChem BioAssay (NCI)",
  "note": "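Five concentrations, 48 hours, 96-well plates. TGI: concentration producing complete growth inhibition.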",
  "data": [
    {"tested_on": "RPMI-8226 leukemia", "experiment": "inhibition of tumour cell growth, NCI panel, 48 h", "units": {"TGI": "µM"}, "values": [
      {"smiles": "O=[N+]([O-])c1cccc(Nc2nc(Cl)nc(Cl)n2)c1", "TGI": "> 100"},
      {"smiles": "C=C1C2=C(CCCC2)C(=O)OC12CCCCC2", "TGI": "> 100"},
      {"smiles": "CCOC(=O)CCC(NC(=O)c1ccc(NC(OC)c2nc3cc(C(F)(F)F)ccc3nc2-c2ccccc2)cc1)C(=O)OCC", "note": "(stereo unspecified)", "TGI": "> 74.1"},
      {"smiles": "CCCCOC/N=C(/N)NC#N", "TGI": "> 100"},
      {"smiles": "COc1ccc2[nH]c3c(c2c1)[C@H]1CCC(C(C)(C)C)C[C@H]1[C@H]1C(=O)N(c2ccccc2)C(=O)[C@@H]31", "note": "(stereo partly specified)", "TGI": "> 100"}
    ]},
    {"tested_on": "RXF-631 renal", "experiment": "inhibition of tumour cell growth, NCI panel, 48 h", "units": {"TGI": "µM"}, "values": [
      {"smiles": "CCOC(=O)C1=C(OC(OCC)C(CC)[Se]c2ccccc2)CCC1", "note": "(stereo unspecified)", "TGI": 32.9},
      {"smiles": "CCCc1cc(OC(=O)c2c(O)cc(OC)cc2CCC)cc(O)c1C(=O)O", "TGI": 63.8},
      {"smiles": "Cc1ccc(-c2cc(-c3ccccc3)c(C#N)c(=O)[nH]2)cc1", "TGI": "> 100"},
      {"smiles": "O=[N+]([O-])c1cccc(Nc2nc(Cl)nc(Cl)n2)c1", "TGI": "> 100"},
      {"smiles": "C=C1C2=C(CCCC2)C(=O)OC12CCCCC2", "TGI": "> 100"},
      {"smiles": "CCOC(=O)CCC(NC(=O)c1ccc(NC(OC)c2nc3cc(C(F)(F)F)ccc3nc2-c2ccccc2)cc1)C(=O)OCC", "note": "(stereo unspecified)", "TGI": 29.2},
      {"smiles": "CCCCOC/N=C(/N)NC#N", "TGI": "> 100"},
      {"smiles": "COc1ccc2[nH]c3c(c2c1)[C@H]1CCC(C(C)(C)C)C[C@H]1[C@H]1C(=O)N(c2ccccc2)C(=O)[C@@H]31", "note": "(stereo partly specified)", "TGI": 57.5}
    ]},
    {"tested_on": "SK-MEL-28 melanoma", "experiment": "inhibition of tumour cell growth, NCI panel, 48 h", "units": {"TGI": "µM"}, "values": [
      {"smiles": "CCOC(=O)C1=C(OC(OCC)C(CC)[Se]c2ccccc2)CCC1", "note": "(stereo unspecified)", "TGI": 92.8},
      {"smiles": "CCCc1cc(OC(=O)c2c(O)cc(OC)cc2CCC)cc(O)c1C(=O)O", "TGI": 70.6},
      {"smiles": "Cc1ccc(-c2cc(-c3ccccc3)c(C#N)c(=O)[nH]2)cc1", "TGI": "> 100"},
      {"smiles": "O=[N+]([O-])c1cccc(Nc2nc(Cl)nc(Cl)n2)c1", "TGI": "> 100"},
      {"smiles": "C=C1C2=C(CCCC2)C(=O)OC12CCCCC2", "TGI": "> 100"},
      {"smiles": "CCOC(=O)CCC(NC(=O)c1ccc(NC(OC)c2nc3cc(C(F)(F)F)ccc3nc2-c2ccccc2)cc1)C(=O)OCC", "note": "(stereo unspecified)", "TGI": 31.6},
      {"smiles": "CCCCOC/N=C(/N)NC#N", "TGI": "> 100"},
      {"smiles": "COc1ccc2[nH]c3c(c2c1)[C@H]1CCC(C(C)(C)C)C[C@H]1[C@H]1C(=O)N(c2ccccc2)C(=O)[C@@H]31", "note": "(stereo partly specified)", "TGI": "> 100"}
    ]},
    {"tested_on": "SK-OV-3 ovarian", "experiment": "inhibition of tumour cell growth, NCI panel, 48 h", "units": {"TGI": "µM"}, "values": [
      {"smiles": "CCOC(=O)C1=C(OC(OCC)C(CC)[Se]c2ccccc2)CCC1", "note": "(stereo unspecified)", "TGI": "> 100"},
      {"smiles": "CCCc1cc(OC(=O)c2c(O)cc(OC)cc2CCC)cc(O)c1C(=O)O", "TGI": 68.4},
      {"smiles": "Cc1ccc(-c2cc(-c3ccccc3)c(C#N)c(=O)[nH]2)cc1", "TGI": "> 100"},
      {"smiles": "O=[N+]([O-])c1cccc(Nc2nc(Cl)nc(Cl)n2)c1", "TGI": "> 100"},
      {"smiles": "C=C1C2=C(CCCC2)C(=O)OC12CCCCC2", "TGI": "> 100"},
      {"smiles": "CCOC(=O)CCC(NC(=O)c1ccc(NC(OC)c2nc3cc(C(F)(F)F)ccc3nc2-c2ccccc2)cc1)C(=O)OCC", "note": "(stereo unspecified)", "TGI": 34.9},
      {"smiles": "CCCCOC/N=C(/N)NC#N", "TGI": "> 100"},
      {"smiles": "COc1ccc2[nH]c3c(c2c1)[C@H]1CCC(C(C)(C)C)C[C@H]1[C@H]1C(=O)N(c2ccccc2)C(=O)[C@@H]31", "note": "(stereo partly specified)", "TGI": 44.9}
    ]},
    {"tested_on": "SNB-19 CNS", "experiment": "inhibition of tumour cell growth, NCI panel, 48 h", "units": {"TGI": "µM"}, "values": [
      {"smiles": "CCOC(=O)C1=C(OC(OCC)C(CC)[Se]c2ccccc2)CCC1", "note": "(stereo unspecified)", "TGI": "> 100"},
      {"smiles": "CCCc1cc(OC(=O)c2c(O)cc(OC)cc2CCC)cc(O)c1C(=O)O", "TGI": "> 100"},
      {"smiles": "Cc1ccc(-c2cc(-c3ccccc3)c(C#N)c(=O)[nH]2)cc1", "TGI": "> 100"},
      {"smiles": "O=[N+]([O-])c1cccc(Nc2nc(Cl)nc(Cl)n2)c1", "TGI": "> 100"},
      {"smiles": "C=C1C2=C(CCCC2)C(=O)OC12CCCCC2", "TGI": "> 100"},
      {"smiles": "CCOC(=O)CCC(NC(=O)c1ccc(NC(OC)c2nc3cc(C(F)(F)F)ccc3nc2-c2ccccc2)cc1)C(=O)OCC", "note": "(stereo unspecified)", "TGI": 27.5},
      {"smiles": "CCCCOC/N=C(/N)NC#N", "TGI": "> 100"},
      {"smiles": "COc1ccc2[nH]c3c(c2c1)[C@H]1CCC(C(C)(C)C)C[C@H]1[C@H]1C(=O)N(c2ccccc2)C(=O)[C@@H]31", "note": "(stereo partly specified)", "TGI": "> 51.7"}
    ]},
    {"tested_on": "U251 CNS", "experiment": "inhibition of tumour cell growth, NCI panel, 48 h", "units": {"TGI": "µM"}, "values": [
      {"smiles": "CCOC(=O)C1=C(OC(OCC)C(CC)[Se]c2ccccc2)CCC1", "note": "(stereo unspecified)", "TGI": 25.3},
      {"smiles": "CCCc1cc(OC(=O)c2c(O)cc(OC)cc2CCC)cc(O)c1C(=O)O", "TGI": 68.4},
      {"smiles": "Cc1ccc(-c2cc(-c3ccccc3)c(C#N)c(=O)[nH]2)cc1", "TGI": "> 100"},
      {"smiles": "O=[N+]([O-])c1cccc(Nc2nc(Cl)nc(Cl)n2)c1", "TGI": "> 100"},
      {"smiles": "C=C1C2=C(CCCC2)C(=O)OC12CCCCC2", "TGI": "> 100"},
      {"smiles": "CCOC(=O)CCC(NC(=O)c1ccc(NC(OC)c2nc3cc(C(F)(F)F)ccc3nc2-c2ccccc2)cc1)C(=O)OCC", "note": "(stereo unspecified)", "TGI": 29.8},
      {"smiles": "CCCCOC/N=C(/N)NC#N", "TGI": "> 100"},
      {"smiles": "COc1ccc2[nH]c3c(c2c1)[C@H]1CCC(C(C)(C)C)C[C@H]1[C@H]1C(=O)N(c2ccccc2)C(=O)[C@@H]31", "note": "(stereo partly specified)", "TGI": 19.2}
    ]},
    {"tested_on": "UACC-62 melanoma", "experiment": "inhibition of tumour cell growth, NCI panel, 48 h", "units": {"TGI": "µM"}, "values": [
      {"smiles": "CCOC(=O)C1=C(OC(OCC)C(CC)[Se]c2ccccc2)CCC1", "note": "(stereo unspecified)", "TGI": 81.1},
      {"smiles": "CCCc1cc(OC(=O)c2c(O)cc(OC)cc2CCC)cc(O)c1C(=O)O", "TGI": 78.1},
      {"smiles": "Cc1ccc(-c2cc(-c3ccccc3)c(C#N)c(=O)[nH]2)cc1", "TGI": "> 100"},
      {"smiles": "O=[N+]([O-])c1cccc(Nc2nc(Cl)nc(Cl)n2)c1", "TGI": "> 100"},
      {"smiles": "C=C1C2=C(CCCC2)C(=O)OC12CCCCC2", "TGI": "> 100"},
      {"smiles": "CCOC(=O)CCC(NC(=O)c1ccc(NC(OC)c2nc3cc(C(F)(F)F)ccc3nc2-c2ccccc2)cc1)C(=O)OCC", "note": "(stereo unspecified)", "TGI": 34.2},
      {"smiles": "CCCCOC/N=C(/N)NC#N", "TGI": "> 100"},
      {"smiles": "COc1ccc2[nH]c3c(c2c1)[C@H]1CCC(C(C)(C)C)C[C@H]1[C@H]1C(=O)N(c2ccccc2)C(=O)[C@@H]31", "note": "(stereo partly specified)", "TGI": "> 100"}
    ]},
    {"tested_on": "UO-31 renal", "experiment": "inhibition of tumour cell growth, NCI panel, 48 h", "units": {"TGI": "µM"}, "values": [
      {"smiles": "CCOC(=O)C1=C(OC(OCC)C(CC)[Se]c2ccccc2)CCC1", "note": "(stereo unspecified)", "TGI": 96.2},
      {"smiles": "CCCc1cc(OC(=O)c2c(O)cc(OC)cc2CCC)cc(O)c1C(=O)O", "TGI": 35.9},
      {"smiles": "Cc1ccc(-c2cc(-c3ccccc3)c(C#N)c(=O)[nH]2)cc1", "TGI": "> 100"},
      {"smiles": "O=[N+]([O-])c1cccc(Nc2nc(Cl)nc(Cl)n2)c1", "TGI": "> 100"},
      {"smiles": "C=C1C2=C(CCCC2)C(=O)OC12CCCCC2", "TGI": "> 100"},
      {"smiles": "CCOC(=O)CCC(NC(=O)c1ccc(NC(OC)c2nc3cc(C(F)(F)F)ccc3nc2-c2ccccc2)cc1)C(=O)OCC", "note": "(stereo unspecified)", "TGI": 26.8},
      {"smiles": "CCCCOC/N=C(/N)NC#N", "TGI": "> 100"},
      {"smiles": "COc1ccc2[nH]c3c(c2c1)[C@H]1CCC(C(C)(C)C)C[C@H]1[C@H]1C(=O)N(c2ccccc2)C(=O)[C@@H]31", "note": "(stereo partly specified)", "TGI": 97.5}
    ]}
  ]
}
